Data on twelve molecules can be found in ChEMBL document CHEMBL6074624, “FDA-approved small molecule kinase inhibitors for cancer treatment (2001-2015): Medical indication, structural optimization, and binding mode Part I” (Bioorg Med Chem, 2024).

In general, EC50 refers to the concentration at which the effect is half-maximal. In general, IC50 refers to the concentration that inhibits the measured activity by half. A word on the bioavailability: it is dose-corrected exposure relative to a reference, in per cent. The low end stands for poor availability, the high end for good availability. What is called MTD is the highest dose tested that stayed within the study's limit of toxicity. By AUC is commonly meant the area under the concentration-time curve, a measure of exposure. A low value points to less exposure. The solubility is the concentration that dissolves in the medium under given conditions.

Series [1] concerns SK-MEL-28. In words: Antiproliferative activity against human SK-MEL-28 cells assessed as reduction in cell growth after 3 days by MTT assay. In kind it is functional, cell-based. The note with it: SK-MEL-28, 72 h. On the technique in general: Tetrazolium assays rely on reduction of a dye to a coloured formazan, in cell work by metabolically active cells.
Series [2] is described as follows: Clearance in Sprague-Dawley rat at 5 mg/kg, po. It is filed as ADME, organism-based. The note with it: in vivo.
The next series has as its system NCI-H1975. In words: Antitumor activity against human NCI-H1975 cells xenografted in female nude mouse assessed as tumor growth inhibition at 20 mg/kg, po adminstered once daily for 25 days relative to control. It is filed as functional. The note with it: NCI-H1975, 600 h, time 25 day, read-out: TGI. A general note: In xenograft studies the graft and the host belong to different species.

Series [3] has as its system KARPAS-299. The series can be described thus: cells. The note with it: Homo sapiens, KARPAS-299, 24 h.
Series [4] concerns MDA-MB-231. The series can be described thus: Antitumor activity against human MDA-MB-231 cells xenografted in athymic nude mouse assessed as tumor growth inhibition at 20 mg/kg, po administered once daily for 11 days relative to control. It is filed as functional. The note with it: MDA-MB-231, 264 h, time 11 day, read-out: TGI.
Series [5] has as its system NCI-H2228. In words: Antitumor activity against ALK positive human NCI-H2228 cells xenografted in RNU nude rat assessed as tumor growth inhibition at 10 mg/kg, po administered for 2 weeks relative to control. In kind it is functional. The note with it: NCI-H2228, 336 h, read-out: TGI.
In series [6] the test system is KARPAS-299. In words: Antitumor activity against ALK positive human KARPAS-299 cells xenografted in RNU nude rat assessed as tumor growth inhibition at 25 mg/kg, po administered for 2 weeks relative to control. The note with it: KARPAS-299, 336 h, read-out: TGI. In kind it is functional.
Series [7] relates to KARPAS-299. In words: Antitumor activity against ALK positive human KARPAS-299 cells xenografted in RNU nude rat assessed as tumor growth inhibition at 12.5 mg/kg, po administered for 2 weeks relative to control. The note with it: KARPAS-299, 336 h, read-out: TGI. In kind it is functional.
The test system of series [8] is NCI-H2228. In words: Antitumor activity against ALK positive human NCI-H2228 cells xenografted in RNU nude rat assessed as tumor growth inhibition at 5 mg/kg, po administered for 2 weeks relative to control. It is filed as functional. The note with it: NCI-H2228, 336 h, read-out: TGI.
In series [9] the test system is KARPAS-299. In words: Antitumor activity against ALK positive human KARPAS-299 cells xenografted in RNU nude rat assessed as tumor growth inhibition at 6.25 mg/kg, po administered for 2 weeks relative to control. In kind it is functional. The note with it: KARPAS-299, 336 h, read-out: TGI.
The test system of a further series is Caco-2. In words: Cytotoxicity against human Caco-2 cells assessed as reduction in cell viability. In kind it is functional, cell-based.
Series [10] is described as follows: Oral bioavailability in human at 5 mg/kg. The note with it: in vivo. It is filed as ADME, organism-based.
Series [11] in a line: Antitumor activity against human MDA-MB-231T cells xenografted in mouse assessed as tumor growth inhibition at 1 mg/kg, po relative to control. It is filed as functional. The note with it: read-out: TGI.
Series [12] can be described thus: Antitumor activity against human MDA-MB-231T cells xenografted in mouse assessed as tumor growth inhibition at 3 mg/kg, po relative to control. In kind it is functional. The note with it: read-out: TGI.
Series [13] can be described thus: Antiproliferative activity against human MDA-MB-231T cells assessed as reduction in cell viability. In kind it is functional, cell-based.
Series [14] deals with Dual specificity mitogen-activated protein kinase kinase 1 (Homo sapiens, UniProt Q02750). In words: Inhibition of MEK1 (unknown origin) phosphorylation by [gamma-33P]-ATP assay.
Sequence of Dual specificity mitogen-activated protein kinase kinase 1 (Q02750 whole entry): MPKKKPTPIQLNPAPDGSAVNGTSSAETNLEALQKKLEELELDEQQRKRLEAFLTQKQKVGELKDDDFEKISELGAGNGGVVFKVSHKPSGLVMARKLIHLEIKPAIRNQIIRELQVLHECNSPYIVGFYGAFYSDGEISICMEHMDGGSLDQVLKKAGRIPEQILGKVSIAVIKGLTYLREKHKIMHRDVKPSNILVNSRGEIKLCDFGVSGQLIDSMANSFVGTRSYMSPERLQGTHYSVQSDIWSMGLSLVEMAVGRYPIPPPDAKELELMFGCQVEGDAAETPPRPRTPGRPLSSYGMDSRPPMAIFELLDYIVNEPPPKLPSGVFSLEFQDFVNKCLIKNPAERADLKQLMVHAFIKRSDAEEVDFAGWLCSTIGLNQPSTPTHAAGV
Series [15] has as its system SK-MEL-28. In words: Cytotoxicity against human SK-MEL-28 cells assessed as reduction in cell viability after 24 hrs by MTT assay. The note with it: SK-MEL-28, 24 h. It is filed as functional, cell-based.
Series [16] in a line: Intrinsic clearance in rat. In kind it is ADME.
In the next series the test system is Jurkat. The series can be described thus: cells. The note with it: Homo sapiens.
A further series concerns Ramos. In words: cells. The note with it: Homo sapiens.
Series [17] can be described thus: Toxicity in ICR mouse assessed as maximal tolerated dose measured for 7 days. The note with it: in vivo, time 7 day.
Series [18] has as its system MDA-MB-231. The series can be described thus: Antitumor activity against human MDA-MB-231 cells xenografted in nu/nu CD-1 mouse assessed as reduction in tumor growth at 3 mg/kg, po administered once daily for 14 days relative to control. The note with it: MDA-MB-231, 336 h, time 14 day, read-out: TGI. In kind it is functional.
For another series, the system named is COLO 205. The series can be described thus: Antitumor activity against human COLO 205 cells xenografted in nu/nu CD-1 mouse assessed as reduction in tumor growth at 100 mg/kg, po administered once daily for 14 days relative to control. In kind it is functional. The note with it: COLO 205, 336 h, time 14 day, read-out: TGI.
In the next series the test system is 786-0. The series can be described thus: Antitumor activity against human 786-0 cells xenografted in nu/nu CD-1 mouse assessed as reduction in tumor growth at 10 mg/kg, po administered once daily for 21 days relative to control. In kind it is functional. The note with it: 786-0, 504 h, time 21 day, read-out: TGI.
A short description of series [19]: AUC in human. It is filed as ADME.
Series [20] has as its system A549. The series can be described thus: Antitumor activity against human A549 cells harboring KRAS G12S mutant xenografted in athymic nude mouse assessed as tumor growth inhibition at 0.5 mg/kg, po administered once daily for 21 days relative to control. In kind it is functional. The note with it: A549, 504 h, time 21 day, read-out: TGI.
Series [21] deals with A549. In words: Antitumor activity against human A549 cells harboring KRAS G12S mutant xenografted in athymic nude mouse assessed as tumor growth inhibition at 0.1 mg/kg, po administered once daily for 21 days relative to control. In kind it is functional. The note with it: A549, 504 h, time 21 day, read-out: TGI.
Series [22] concerns A549. In words: Antitumor activity against human A549 cells harboring KRAS G12S mutant xenografted in athymic nude mouse assessed as tumor growth inhibition at 5 mg/kg, po administered once daily for 21 days relative to control. It is filed as functional. The note with it: A549, 504 h, time 21 day, read-out: TGI.
Series [23] in a line: Oral bioavailability in human. In kind it is ADME, organism-based. The note with it: in vivo.
A short description of series [24]: Solubility of compound in PBS at pH 7.4. In kind it is physicochemical.
Series [25] is described as follows: Permeability of compound in human Caco-2 cells […]. It is filed as ADME, cell-based. The note with it: read-out: permeability. In general terms: Passage across Caco-2 layers is used to estimate intestinal permeability.
In a further series the test system is ACHN. The series can be described thus: Antiproliferative activity against human ACHN cells assessed as reduction in cell viability measured after 48 hrs by SRB assay. In kind it is functional, cell-based.
For another series, the system named is HT-29. In words: Antiproliferative activity against human HT-29 cells assessed as reduction in cell viability after 72 hrs by MTS assay. It is filed as functional, cell-based. The note with it: HT-29, 72 h.
Series [26] deals with A549. In words: Antitumor activity against human A549 cells harboring KRAS G12S mutant xenografted in athymic nude mouse assessed as tumor growth inhibition at […], po administered once daily for 21 days relative to control. It is filed as functional. The note with it: A549, 504 h, dose 2.5 mg/kg, time 21 day, read-out: TGI.

Converted amounts (≈) assume the structure as drawn.

With `CC(=O)N1CCN(c2ccc(Nc3nccc(-c4sc(C(C)C)nc4-c4cccc(NS(=O)(=O)c5ccccc5)c4)n3)cn2)CC1`, the EC50 in the series with SK-MEL-28 [1] was 24 nM.

Consider `O=C(c1ccc(F)c(F)c1Nc1ccc(I)cc1F)N1CC(O)C1`, for which the CL in [2] was 8.324 mL/min/kg.

As for `CN(C)C/C=C/C(=O)Nc1cc2c(Nc3ccc(F)c(Cl)c3)ncnc2cc1O[C@H]1CCOC1` [AFATINIB], the inhibition in vivo at 20 mg/kg in the series on NCI-H1975 amounted to 12%.

The molecule `CCc1cc2c(cc1N1CCC(N3CCOCC3)CC1)C(C)(C)c1[nH]c3cc(C#N)ccc3c1C2=O` [ALECTINIB] registered a 50% inhibitory concentration (IC50) in the series with KARPAS-299 [3] of 12.8 nM. Further, the inhibition in vivo at 20 mg/kg with MDA-MB-231 [4] stood at 119%.

As to `Cc1cc(Nc2ncc(Cl)c(Nc3ccccc3S(=O)(=O)C(C)C)n2)c(OC(C)C)cc1C1CCNCC1` [CERITINIB], in the series with NCI-H2228 [5], the inhibition in vivo at 10 mg/kg was 2%. In addition, the inhibition in vivo at 25 mg/kg in the series on KARPAS-299 [6] stood at 33%. The inhibition in vivo at 12.5 mg/kg in the series with KARPAS-299 [7] was 30%. The inhibition in vivo at 5 mg/kg with NCI-H2228 [8] was 67%. In the series on KARPAS-299 [9], the inhibition in vivo at 6.25 mg/kg was found to be 74%.

In the case of `O=C(NOCC1CC1)c1ccc(F)c(F)c1Nc1ccc(I)cc1Cl` [CI-1040], the IC50 in the series with Caco-2 amounted to 35 nM.

`O=C(c1ccc(F)c(F)c1Nc1ccc(I)cc1F)N1CC(O)([C@@H]2CCCCN2)C1` [COBIMETINIB] came in with a bioavailability in [10] of 77%. Besides, the inhibition in vivo at 1 mg/kg in series [11] stood at 60%. In addition, the inhibition in vivo at 3 mg/kg in series [12] was 93%. For the same molecule, the results for the IC50 in [13] and in series [14] were 0.2 nM and 6.6 nM, respectively.

Take `CC(C)(C)c1nc(-c2cccc(NS(=O)(=O)c3c(F)cccc3F)c2F)c(-c2ccnc(N)n2)s1` [DABRAFENIB]: the IC50 with SK-MEL-28 [15] worked out at 3 nM. Further, the clearance in series [16] was 19 mL/min/kg.

On to `C=CC(=O)N1CCC[C@@H](n2nc(-c3ccc(Oc4ccccc4)cc3)c3c(N)ncnc32)C1` [IBRUTINIB], for which the IC50 with Jurkat came to 470 nM; in the series with Ramos it was 40 nM.

On to `O=C(NOC[C@H](O)CO)c1ccc(F)c(F)c1Nc1ccc(I)cc1F` [MIRDAMETINIB], for which the maximum tolerated dose (MTD) at 168 h in series [17] was 25 mg/kg.

As for `CNC(=O)c1cc(Oc2ccc(NC(=O)Nc3ccc(Cl)c(C(F)(F)F)c3)c(F)c2)ccn1` [REGORAFENIB], in the series with MDA-MB-231 [18], the inhibition in vivo at 3 mg/kg turned out to be 81%. For the same molecule, the inhibition in vivo at 100 mg/kg in the series on COLO 205 stood at 75%. The inhibition in vivo at 10 mg/kg in the series on 786-0 was greater than 90%.

With `CC(=O)Nc1cccc(-n2c(=O)n(C3CC3)c(=O)c3c(Nc4ccc(I)cc4F)n(C)c(=O)c(C)c32)c1` [TRAMETINIB], the AUC in [19] turned out to be 88.3 µM·h. The inhibition in vivo at 0.5 mg/kg in the series with A549 [20] turned out to be 62%. In addition, the inhibition in vivo at 0.1 mg/kg in the series on A549 [21] is 58%. In the series on A549 [22], the inhibition in vivo at 5 mg/kg is 92%. The same molecule registered a bioavailability in series [23] of 30%. The solubility in series [24] stood at 5.3 µM (≈ 3.26 µg/mL). Also, the Papp in series [25] was determined as 26 ×10⁻⁶ cm/s. Also, the 50% inhibitory concentration (IC50) came out at 9.8 nM with ACHN and 0.57 nM in the series with HT-29. The inhibition in vivo at […] with A549 [26] came out at 87%.
